Data on 1 molecule can be found in publication PMC4907692, “Engineering vanilloid-sensitivity into the rat TRPV2 channel” (eLife, 2016).

One assay addresses T1, TRPV1 S512F (Rattus norvegicus, UniProt O35433, S512F).
T1 construct: expressed in transfected cells; host or cells: Xenopus oocytes (cRNA injection)
Put plainly: Two-electrode voltage-clamp in Xenopus oocytes, TRPV1 S512F. It is filed as cell-based. The conditions noted are these: 100 nM RTx. The text has this:
(§1) To further investigate the putative vanilloid binding pocket in TRPV1, we inspected the cryo-EM structure of TRPV1, looking for residues that are located nearby to the putative RTx density (Figure 1B; regions/residues highlighted in yellow) and that differ between TRPV1 and TRPV2 channels (Figure 3—figure supplement 1; regions highlighted in magenta). […] To quantify the contribution of each of these residues to TRPV1 channel activation by RTx under our experimental conditions, we mutated each to the corresponding residue in TRPV2. We then expressed each construct in oocytes and used the two electrode voltage-clamp technique to study activation by RTx and by the non-specific TRPV channel activator 2-APB. We recorded time courses for channel activation by each agonist while stepping the membrane potential from −60 to +60 mV every 3 s from a holding potential of 0 mV using an external recording solution containing 100 mM KCl (internal K^+ concentration in a healthy oocyte is 100 mM) (Figure 3A, left). We also recorded current-voltage (I-V) relations by stepping over a wider range of voltages in the absence and presence of activators, or in the presence of ruthenium red (RR), a non-specific inhibitor of TRP channels (Figure 3A, right). […]

The target of another assay is T2, TRPV1 S512F/E570Q (Rattus norvegicus, UniProt O35433, E570Q/S512F).
T2 construct: expressed in transfected cells; host or cells: Xenopus oocytes (cRNA injection)
Put plainly: Two-electrode voltage-clamp in Xenopus oocytes, TRPV1 S512F/E570Q. Type of assay: cell-based. To be noted: 100 nM RTx.
Description: as §1
A general note: In two-electrode clamp one electrode senses voltage and the other passes current.

T1 sequence (O35433 whole entry S512F): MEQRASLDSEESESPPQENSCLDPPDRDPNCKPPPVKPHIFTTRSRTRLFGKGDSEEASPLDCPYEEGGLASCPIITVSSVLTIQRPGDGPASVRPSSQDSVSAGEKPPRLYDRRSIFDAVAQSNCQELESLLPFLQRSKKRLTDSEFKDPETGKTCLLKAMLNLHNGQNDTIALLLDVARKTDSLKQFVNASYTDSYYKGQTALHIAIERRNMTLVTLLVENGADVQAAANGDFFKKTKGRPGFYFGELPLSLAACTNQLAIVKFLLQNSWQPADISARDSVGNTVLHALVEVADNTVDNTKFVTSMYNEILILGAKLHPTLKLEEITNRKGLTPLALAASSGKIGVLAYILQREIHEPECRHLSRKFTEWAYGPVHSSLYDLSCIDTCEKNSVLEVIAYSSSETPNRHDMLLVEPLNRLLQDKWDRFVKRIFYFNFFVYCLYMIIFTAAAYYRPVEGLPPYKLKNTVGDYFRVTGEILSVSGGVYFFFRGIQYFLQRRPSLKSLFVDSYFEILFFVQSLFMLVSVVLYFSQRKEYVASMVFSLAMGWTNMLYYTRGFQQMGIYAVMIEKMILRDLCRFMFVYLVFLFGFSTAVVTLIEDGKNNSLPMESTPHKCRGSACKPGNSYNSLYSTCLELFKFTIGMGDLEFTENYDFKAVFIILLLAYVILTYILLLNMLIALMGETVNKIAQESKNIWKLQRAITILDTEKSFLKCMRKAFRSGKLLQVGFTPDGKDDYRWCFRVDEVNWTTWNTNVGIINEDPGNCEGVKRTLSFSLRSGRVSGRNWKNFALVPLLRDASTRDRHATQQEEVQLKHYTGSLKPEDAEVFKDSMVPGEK
T2 sequence (O35433 whole entry S512F/E570Q): as the sequence (O35433 whole entry S512F) above, with E570Q counted along it

For `C=C(C)[C@]12C[C@@H](C)[C@@]34O[C@](Cc5ccccc5)(O[C@@H]1[C@@H]3C=C(COC(=O)Cc1ccc(O)c(OC)c1)C[C@]1(O)C(=O)C(C)=C[C@@H]41)O2` [RTx, resiniferatoxin], at TRPV1 S512F, the “dissociation of RTx after removal from the recording chamber” value is recorded as “could readily see dissociation of RTx”. In addition, the “channel activation by RTx” value on TRPV1 S512F/E570Q was “retained RTx sensitivity”.
